Patent publication US20240376087A1, “PYRAZOLE AMIDE BASED COMPOUNDS AND USES AGAINST BREAST CANCER THEREOF” (COUNCIL OF SCIENTIFIC AND INDUSTRIAL RESEARCH AN INDIAN …, priority 2021, published 2024)
“Also recorded” adds a separate entry of the source.

Key:
MDA MB 231 cells [1] = assay: Nuclear fragmentation by DAPI staining; type: cell-based, human; conditions: MDA MB 231, DAPI staining, 24 hr
Protocol: Fragmentation of the nucleus on treatment with NIIST-AC-1 was analyzed using the cell permeable dye which binds to AT rich sequences in the minor groove of DNA. After treatment in 96 well culture plates for 24 hr, the cells were stained with DAPI for 20 min. The morphology of the stained nucleus was observed using a spinning disc fluorescent microscope at an excitation/emission of 360/460 nm (BD Pathway™ 855; Biosciences), and images were taken using the software BD Atto Vision™ version 1.6.

MDA MB 231 cells [2] = assay: Colony formation assay; type: cell-based, human; conditions: 48 hr pretreatment, 14 days
Protocol: The pretreated cells with different concentrations of NIIST-AC-1 for 48 hr were plated in six well plates and allowed to grow and colonize for 14 days. The colonies were stained with crystal violet for 2 hr after fixing with acetic acid and methanol. The visible colonies were photographed and the colon area was quantified using ImageJ 1.52p software.

caspase-3 = assay: Assay of caspase 3 (fluorometric, cell lysates); type: cell-based, human; conditions: MDA MB 231 cell lysates, DEVD-AFC
Protocol: (§1) The activities of the initiator caspase-9 and downstream executioner caspase-3 were measured using Fluorometric Assay Kit. The caspase activity in the cell lysates of control and treated cells were measured by using the fluorescent substrate DEVD-AFC (for caspase-3 activity) and LEHD-AFC (for caspase-9 activity). Samples were read at 400-nm excitation filter and 505-nm emission filter in a fluorescent microplate reader (BioTek Synergy HT) using Gen5™ ver 1.05.11 software, and the results were expressed as relative units in terms of fluorescence.

MDA MB 231 cells [3] = assay: Glucose uptake study (2-NBDG, FACS); type: cell-based, human
Protocol: The effect of NIIST-AC-1 on the uptake of glucose was analyzed by flow cytometry using 2-NBDG. After incubation of the cells with different concentrations of NIIST-AC-1, the cell culture medium was replaced with medium containing fluorescent 2-NBDG and incubated for 30 minutes. Then the samples were analyzed using BD FACSAria II (BD Biosciences) at FITC range (excitation, 465 nm; emission 540-nm bandpass filter). The mean fluorescence intensities of different groups were analyzed by BD FACSDiva ver 6.1.3 software and corrected for autofluorescence from unlabeled cells.

[4] = system: proteins in the extrinsic and intrinsic pathway of apoptosis; assay: Protein array for expression of apoptotic proteins; type: cell-based, human; conditions: MDA MB 231 lysates
Protocol: The expression of various proteins in the extrinsic and intrinsic pathway of apoptosis on treatment with NIIST-AC-1 was analyzed by using antibody pair-based assay, where the 43 targets were captured on a membrane. Lysates of control and treated cells were spotted to the membrane as protein equivalents. Paired biotinylated detector antibodies and streptavidin HRP were used for development using chemiluminescent method. Comparison of the membrane were done using densitometry software.

MDA MB 231 cells [5] = assay: Morphological analysis by phase contrast and electron microscopy; type: cell-based, human; conditions: MDA MB 231, phase contrast and SEM
Text: Morphological analysis of the cells treated with NIIST-AC-1 at different concentrations were monitored using phase contrast microscope Nikon EclipseTS100 (Nikon Instruments Inc., Melville, NY, USA, Magnification 20×) and SEM (Zeiss EVO 18 Special Edition) at ×2k and ×5k magnification.

[6] = system: histone deacetylase 1 (HDAC-1); assay: HDAC inhibition assay (colorimetric, cell lysates); type: biochemical, human; conditions: enzyme assay, MDA MB 231 cell lysates
Protocol: The histone deacetylase inhibitory activity was measured in the cell lysates using the colorimetric assay kit where we have used the substrate Ac-Lys (Ac)-pNA and trichostatin A as the positive control. After the reaction, the absorbance was measured at 400 nm and the percentage inhibition was calculated by comparing with the deacetylated standard Ac-Lys-pNA.

caspase-9 = assay: Assay of caspase 9 (fluorometric, cell lysates); type: cell-based, human; conditions: MDA MB 231 cell lysates, LEHD-AFC
Protocol: as §1

MDA MB 231 cells [7] = assay: RNA sequencing whole transcriptome analysis and gene set enrichment; type: cell-based, human
Protocol: Toral RNA was isolated from the cells using RNeasy mini kit. 15 μg of cellular RNA was quality assessed (Bioanalyzer from Agilent Technologies) and used for mRNA library preparation. The mRNAs were fragmented, and the first strand of cDNA was synthesized from the cleaved RNA using random primers followed by second strand cDNA synthesis. The purified cDNA templates were enriched by PCR amplification to generate cDNA libraries. The developed libraries were presented to RNA sequencing facility and two rapid single-read 50 illumina HiSeq sequencing runs were performed. Raw reads from separate lanes of the same sample were merged for mapping. RNA sequencing was performed at Eurofins Genomics India Pvt. Ltd., Bengaluru 560048, Karnataka, India.
The output raw FASTQ files were analyzed using various tools of Galaxy platform to extract the differentially expressed genes as follows. The quality of the reads was analyzed using FastQC (Galaxy Version 0.72+galaxy1). The quality check reports were aggregated using MultiQC (Galaxy Version 1.9+galaxy1). Cutadapt (Galaxy Version 1.16.6) was used for adapter removal and filtering using threshold of minimum read length 20 and minimum quality (phred score) 20. Again, the quality was checked, and results were aggregated. The cleaned reads were mapped to a reference genome (Homo_sapiens.GRCh38.dna_sm.primary_assembly.fa.gz) and annotation file (Homo_sapiens.GRCh38.104.gtf.gz) using HISAT2 (Galaxy Version 2.1.0+galaxy7), a splice-aware alignment program. The output bam files are processed using StringTie (Galaxy Version 2.1.1) to assemble and quantitate RNA-Seq alignments into potential transcript. Later the Deseq2 (Galaxy Version 2.11.40.6+galaxy1) was used to determine normalized differentially expressed genes from the Stringtie output count tables. […] These differentially expressed genes were filtered using Filter (Galaxy Version 1.1.1) to extract significant ones by adding a filter of q-value<=0.05 and log 2 fold change >1.
The functional annotation (biological process, molecular function and pathways) was considered significant at False discovery rate (FDR B&H)<0.05. GSEA Preranked tool of standalone R program GSEA 4.1.0 was used to perform Gene Set Enrichment Analysis (GSEA) on ranked (log fold change based) list of total DEGs against CP: Canonical pathways (a pre-defined collection of 2922 gene sets) of Molecular Signatures Database (MSigDB). The enriched pathways with FDR qvalue less than 0.25 were considered significant.

[8] = whole transcriptome, q-value<=0.05 and log 2 fold change >1

COc1cc(-c2cc(C(=O)NCc3cc(C(F)(F)F)cc(C(F)(F)F)c3)[nH]n2)cc(OC)c1OC [I-8, N-(3,5-bis(trifluoromethyl)benzyl)-3-(3,4,5-trimethoxyphenyl)-1H-pyrazole-5-carboxamide]
nuclear fragmentation (MDA MB 231 cells [1]): significant nuclear fragmentation
colony formation (MDA MB 231 cells [2]): inhibition of colony formation
caspase 3 activity (caspase-3): upregulated caspase activity
glucose uptake (MDA MB 231 cells [3]): significant reduction in the uptake of glucose
expression of apoptotic proteins (intrinsic and extrinsic pathways) [4]: upregulated the proteins involved in intrinsic and extrinsic pathways
morphological changes of the cells (MDA MB 231 cells [5]): significant morphological changes
HDAC inhibitory activity [6]: significant inhibition; also recorded: substantial histone deacetylase 1 (HDAC-1) inhibitory activity
caspase 9 activity (caspase-9): upregulated caspase activity
downregulated signaling pathways (gene set enrichment analysis) (MDA MB 231 cells [7]; downregulated genes vs canonical gene sets): downregulated many signaling pathways that are critical in the cell death process
upregulated signaling pathways (gene set enrichment analysis) (MDA MB 231 cells [7]; upregulated genes vs canonical gene sets): upregulation of signaling pathways of ER stress induced apoptosis, UPR response, autophagy, HDAC acetylation
number of downregulated genes (MDA MB 231 cells [7]; [8]): 1642 genes
number of upregulated genes (MDA MB 231 cells [7]; [8]): 1337 genes
